According to ChEMBL document CHEMBL4414672, “Synthesis of certain benzothieno[3,2-d]pyrimidine derivatives as a selective SIRT2 inhibitors” (Eur J Med Chem, 2020):
In brackets after ≈: the same amount, converted by molar mass.

What was measured:
LOX IMVI = assay: Growth inhibition of human LOXIMVI cells at 10^-5 M incubated for 48 hrs by sulforhodamine B assay; format: functional; conditions: read-out: GI
SN12C = assay: Growth inhibition of human SN12C cells at 10^-5 M incubated for 48 hrs by sulforhodamine B assay; format: functional; conditions: read-out: GI
NCI-H522 = assay: Growth inhibition of human NCI-H522 cells at 10^-5 M incubated for 48 hrs by sulforhodamine B assay; format: functional; conditions: NCI-H522, 48 h, read-out: GI
HOP-92 = assay: Growth inhibition of human HOP92 cells at 10^-5 M incubated for 48 hrs by sulforhodamine B assay; format: functional; conditions: HOP-92, 48 h, read-out: GI
MCF7 [1] = assay: Growth inhibition of human MCF7 cells at 10^-5 M incubated for 48 hrs by sulforhodamine B assay; format: functional; conditions: MCF7, 48 h, read-out: GI
U-251 = assay: Growth inhibition of human U251 cells at 10^-5 M incubated for 48 hrs by sulforhodamine B assay; format: functional; conditions: U-251, 48 h, read-out: GI
NCI/ADR-RES = assay: Growth inhibition of human NCI/ADR-RES cells at 10^-5 M incubated for 48 hrs by sulforhodamine B assay; format: functional; conditions: read-out: GI
[2] = molecular target: NAD-dependent protein deacetylase sirtuin-3, mitochondrial (Homo sapiens, UniProt Q9NTG7); assay: Inhibition of SIRT3 (unknown origin) using fluorogenic substrate assessed as deacetylase activity incubated for 45 mins by fluorescence assay
Chain of NAD-dependent protein deacetylase sirtuin-3, mitochondrial (Q9NTG7 whole entry): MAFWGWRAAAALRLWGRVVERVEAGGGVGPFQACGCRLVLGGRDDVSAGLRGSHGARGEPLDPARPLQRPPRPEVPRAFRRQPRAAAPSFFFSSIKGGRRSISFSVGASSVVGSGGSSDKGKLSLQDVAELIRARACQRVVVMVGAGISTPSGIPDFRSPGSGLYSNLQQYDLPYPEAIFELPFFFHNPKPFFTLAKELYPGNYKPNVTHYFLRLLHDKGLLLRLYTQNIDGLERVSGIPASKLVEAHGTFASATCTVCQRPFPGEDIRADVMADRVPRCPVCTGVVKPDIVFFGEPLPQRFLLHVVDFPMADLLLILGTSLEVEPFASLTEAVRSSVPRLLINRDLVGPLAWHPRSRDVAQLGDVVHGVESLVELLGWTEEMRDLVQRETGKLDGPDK

HCC 2998 = assay: Growth inhibition of human HCC2998 cells at 10^-5 M incubated for 48 hrs by sulforhodamine B assay; format: functional; conditions: HCC 2998, 48 h, read-out: GI
HCT-116 = assay: Growth inhibition of human HCT116 cells at 10^-5 M incubated for 48 hrs by sulforhodamine B assay; format: functional; conditions: HCT-116, 48 h, read-out: GI
KM12 = assay: Growth inhibition of human KM12 cells at 10^-5 M incubated for 48 hrs by sulforhodamine B assay; format: functional; conditions: KM12, 48 h, read-out: GI
UACC-257 = assay: Growth inhibition of human UACC257 cells at 10^-5 M incubated for 48 hrs by sulforhodamine B assay; format: functional; conditions: UACC-257, 48 h, read-out: GI
CCRF-CEM = assay: Growth inhibition of human CCRF-CEM cells at 10^-5 M incubated for 48 hrs by sulforhodamine B assay; format: functional; conditions: read-out: GI
MDA-MB-435 = assay: Growth inhibition of human MDA-MB-435 cells at 10^-5 M incubated for 48 hrs by sulforhodamine B assay; format: functional; conditions: MDA-MB-435, 48 h, read-out: GI
SNB-75 = assay: Growth inhibition of human SNB75 cells at 10^-5 M incubated for 48 hrs by sulforhodamine B assay; format: functional; conditions: SNB-75, 48 h, read-out: GI
[3] = molecular target: T1, NAD-dependent protein deacetylase sirtuin-2 (Homo sapiens, UniProt Q8IXJ6); assay: Inhibition of SIRT2 (unknown origin) using fluorogenic substrate assessed as deacetylase activity incubated for 45 mins by fluorescence assay
T1 sequence (Q8IXJ6 whole entry): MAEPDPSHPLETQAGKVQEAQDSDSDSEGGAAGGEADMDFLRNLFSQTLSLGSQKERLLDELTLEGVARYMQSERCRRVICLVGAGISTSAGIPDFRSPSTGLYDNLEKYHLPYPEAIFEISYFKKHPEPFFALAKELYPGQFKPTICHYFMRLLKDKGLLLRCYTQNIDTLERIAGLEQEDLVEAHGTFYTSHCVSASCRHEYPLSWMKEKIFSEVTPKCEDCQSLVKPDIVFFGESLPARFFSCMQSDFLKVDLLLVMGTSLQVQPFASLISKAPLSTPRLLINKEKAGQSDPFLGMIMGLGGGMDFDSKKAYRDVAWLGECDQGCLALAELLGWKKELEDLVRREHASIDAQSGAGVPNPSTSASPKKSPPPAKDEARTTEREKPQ

EKVX = assay: Growth inhibition of human EKVX cells at 10^-5 M incubated for 48 hrs by sulforhodamine B assay; format: functional; conditions: read-out: GI
OVCAR-3 = assay: Growth inhibition of human OVCAR3 cells at 10^-5 M incubated for 48 hrs by sulforhodamine B assay; format: functional; conditions: OVCAR-3, 48 h, read-out: GI
HT-29 = assay: Growth inhibition of human HT-29 cells at 10^-5 M incubated for 48 hrs by sulforhodamine B assay; format: functional; conditions: HT-29, 48 h, read-out: GI
[4] = molecular target: NAD-dependent protein deacetylase sirtuin-1 (Homo sapiens, UniProt Q96EB6); assay: Inhibition of SIRT1 (unknown origin) using fluorogenic substrate assessed as deacetylase activity incubated for 45 mins by fluorescence assay
Chain of NAD-dependent protein deacetylase sirtuin-1 (Q96EB6 whole entry): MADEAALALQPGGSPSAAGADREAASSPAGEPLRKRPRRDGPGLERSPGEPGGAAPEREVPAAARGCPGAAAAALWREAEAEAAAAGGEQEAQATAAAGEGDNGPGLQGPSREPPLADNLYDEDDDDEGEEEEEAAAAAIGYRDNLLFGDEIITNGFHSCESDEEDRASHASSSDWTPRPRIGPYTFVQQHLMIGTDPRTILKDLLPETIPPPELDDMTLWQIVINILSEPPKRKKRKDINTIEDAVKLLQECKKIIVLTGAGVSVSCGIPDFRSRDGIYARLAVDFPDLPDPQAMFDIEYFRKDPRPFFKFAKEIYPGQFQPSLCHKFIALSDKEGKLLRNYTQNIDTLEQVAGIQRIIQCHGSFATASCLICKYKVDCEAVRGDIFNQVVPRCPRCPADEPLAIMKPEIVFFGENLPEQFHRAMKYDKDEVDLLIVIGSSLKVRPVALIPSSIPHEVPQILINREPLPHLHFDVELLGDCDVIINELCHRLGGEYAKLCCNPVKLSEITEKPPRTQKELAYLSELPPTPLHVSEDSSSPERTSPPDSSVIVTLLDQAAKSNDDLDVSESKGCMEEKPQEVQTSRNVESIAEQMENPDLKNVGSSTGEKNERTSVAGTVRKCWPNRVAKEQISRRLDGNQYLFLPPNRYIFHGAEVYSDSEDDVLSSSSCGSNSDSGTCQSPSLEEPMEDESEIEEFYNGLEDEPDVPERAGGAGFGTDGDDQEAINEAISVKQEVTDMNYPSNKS

[5] = molecular target: NAD-dependent protein deacetylase sirtuin-2 (Homo sapiens) (UniProt Q8IXJ6); assay: (§1) Inhibition of SIRT2 (unknown origin) assessed as increase in alpha-tubulin acetylation after 2 hrs by alpha-tubulin acetyl-K40 assay
[6] = molecular target: T1, NAD-dependent protein deacetylase sirtuin-2; assay: as §1
MCF7 [7] = assay: Cytotoxicity against human MCF7 cells assessed as reduction in cell viability after 24 hrs by MTT assay; format: functional, cell-based; conditions: MCF7, 24 h
DU-145 = assay: Growth inhibition of human DU145 cells at 10^-5 M incubated for 48 hrs by sulforhodamine B assay; format: functional; conditions: DU-145, 48 h, read-out: GI
OVCAR-5 = assay: Growth inhibition of human OVCAR5 cells at 10^-5 M incubated for 48 hrs by sulforhodamine B assay; format: functional; conditions: OVCAR-5, 48 h, read-out: GI
OVCAR-4 = assay: Growth inhibition of human OVCAR4 cells at 10^-5 M incubated for 48 hrs by sulforhodamine B assay; format: functional; conditions: OVCAR-4, 48 h, read-out: GI
A549 = assay: Growth inhibition of human A549/ATCC cells at 10^-5 M incubated for 48 hrs by sulforhodamine B assay; format: functional; conditions: A549, 48 h, read-out: GI
UO-31 = assay: Cytotoxicity against human UO31 cells assessed as reduction in cell viability after 24 hrs by MTT assay; format: functional, cell-based; conditions: UO-31, 24 h

SMILES: O=C1CSC2=Nc3c(sc4ccc(Cl)cc34)C(c3ccc4ccccc4c3)N12 (stereo not drawn)
- inhibition of growth at 10 µM (LOX IMVI): 9.15%
- inhibition of growth at 10 µM (SN12C): 9.96%
- inhibition of growth at 10 µM (NCI-H522): 1.87%
- inhibition of growth at 10 µM (HOP-92): 6.48%
- inhibition of growth at 10 µM (MCF7 [1]): 27.3%
- inhibition of growth at 10 µM (U-251): -7.94%
- inhibition of growth at 10 µM (NCI/ADR-RES): -1.46%
- IC50 [2]: 48.7 µM
- inhibition of growth at 10 µM (HCC 2998): -30.1%
- inhibition of growth at 10 µM (HCT-116): -7.67%
- inhibition of growth at 10 µM (KM12): 3.7%
- inhibition of growth at 10 µM (UACC-257): 1.52%
- inhibition of growth at 10 µM (CCRF-CEM): -4.04%
- inhibition of growth at 10 µM (MDA-MB-435): -5.65%
- inhibition of growth at 10 µM (SNB-75): 16.8%
- IC50 [3]: 4.99 µM
- inhibition of growth at 10 µM (EKVX): 7.05%
- inhibition of growth at 10 µM (OVCAR-3): -0.24%
- inhibition of growth at 10 µM (HT-29): -0.5%
- IC50 [4]: 4.3 µM
- inhibition [5]: Dose-dependent effect
- IC50 [6]: 76.1 µM
- IC50 (MCF7 [7]): 2.34 µg/mL (≈ 5.56 µM)
- inhibition of growth at 10 µM (DU-145): -8.09%
- inhibition of growth at 10 µM (OVCAR-5): 1.49%
- inhibition of growth at 10 µM (OVCAR-4): 3.47%
- inhibition of growth at 10 µM (A549): 4.93%
- IC50 (UO-31): 12.4 µg/mL (≈ 29.5 µM)
